Data from PMC6200635 (ACS infectious diseases, 2018).
Like-named read-outs stand apart in the source and are kept apart here.

Legend:
[1] = tested on: T. gondii tachyzoites (ME49-FLUC) in HeLa cells; assay: Luciferase based growth assay, multi-point dose response; assay type: cell-based; conditions: Toxoplasma gondii, 72 h
[2] = tested on: GFP-LC3 recruitment to the T. gondii parasite-containing vacuole in GFP-LC3 HeLa cells; assay: Image based GFP-LC3 recruitment assay; assay type: cell-based, Toxoplasma gondii; conditions: IFN-γ 50 U/mL, HeLa cells activated 24 h, 6 h post-infection

**Q.** Which results are given for `CCc1nc(N)nc(N)c1-c1ccc(Cl)cc1` [Pyrimethamine]?
**A.** EC50 ([1]; read-out: EC50+ IFN-γ): 200 nM; EC50 ([1]; read-out: EC50 Naïve): 160 nM

B1: IFN-γ: recombinant human IFN-γ (R&D Systems, 285-IF-100/CF) (protein, UniProt P01579 24-161, looked up)
Interferon gamma: QDPYVKEAENLKKYFNAGHSDVADNGTLFLGILKNWKEESDRKIMQSQIVSFYFKLFKNFKDDQSIQKSVETIKEDMNVKFFNSNKKKRDDFEKLTNYSVTDLNVQRKAIHELIQVMAELSPAAKTGKRKRSQMLFRG
**Q.** For B1, which “GFP-LC3 positive parasite-containing vacuoles” value [2] is on record?
**A.** The value was 12.4%.
